Patent US11999750B2, “Crystalline forms of (S)-5-benzyl-N-(5-methyl-4-oxo-2,3,4,5-tetrahydropyrido [3,2-B][1,4]oxazepin-3-yl)-4H-1,2,4-triazole-3-carboxamide” (Denali Therapeutics Inc., priority 2022, dated 2024)
Values after ≈ are worked out from the molar mass of the structure shown. “Also recorded” adds a separate entry of the source.

Experiments:
Assay type in all cases: physicochemical
[1] = Exposure to ambient condition (XRPD comparison)
Excerpt: Therefore, TGA and DSC characterizations were not performed for Form E. According to the single crystal structure determination results, Form E is a DCM solvate.

[2] = Slurry competition experiments (inter-conversion study of crystal forms); conditions: for Thermodynamic stability relationship / conversion in slurry: slurry in H2O and n-Heptane for 2 days, RT and 70° C.
Protocol: To understand the thermodynamic stability relationship between Form A, B and C, slurry competition experiments in H2O and n-Heptane were performed at RT and 70° C. Prior to the study, the starting material (Form A of Compound (I)) was used to saturate the corresponding solvent at RT and 70° C. before filtered to obtain a near-saturated solution. Equal amounts (˜ 5 mg) of Form A, Form B and Form C were weighed and then added to 0.3 mL of the prepared solution to form a new suspension, which was stirred magnetically (˜1000 rpm) at RT/70° C. for about 2 days.

[3] = Kinetic solubility in bio-relevant media (SGF, FaSSIF, FeSSIF) and H2O at 37° C.; conditions: for Form change after kinetic solubility test: bio-relevant media or H2O, XRPD of residual solids; for solubility at 24 h / solubility at 4 h: 37 °C, thermodynamic from solid
Protocol: Kinetic solubility tests of Form A, Form B, and Form C was performed in bio-relevant media (SGF, FaSSIF and FeSSIF) and H2O at 37° C. Solids were suspended into FaSSIF, FeSSIF, SGF and H2O with target conc. of ˜10 mg/mL. The suspensions were agitated on a rolling incubator at 25 rpm (in the incubator set at 37° C.) for 1, 4 and 24 hrs. At each time point, 1 mL of the suspension was pipetted out for centrifugation at 25000 rpm (3 min) and filtration through 0.45 μm membrane to obtain supernatant for HPLC solubility and pH tests. The residual solids were analyzed by XRPD. […] The solubility of Form A/B/C was summarized from Table 22-24.

[4] = Dynamic Vapor Sorption (DVS); conditions: for Weight gain by DVS: 0 percent to 95 percent relative humidity; for Weight gain by DVS / Hygroscopicity: about 25 degrees centigrade; for Form change after DVS test: XRPD after DVS, 25° C., 0 to 95% RH; for Hygroscopicity: no hygroscopicity = weight gain less than 0.2 weight percent, 0 to 95 percent RH
Protocol: DVS was measured via a SMS (Surface Measurement Systems) DVS Intrinsic. The relative humidity at 25° C. were calibrated against deliquescence point of LiCl, Mg(NO3)2 and KCl. To investigate the solid form stability as a function of humidity, DVS isotherm plots of Form A, Form B, and Form C were collected at 25° C. between 0 and 95% RH. […] As determined by Dynamic Vapor Sorption (DVS) in the range of from 0 percent to 95 percent relative humidity at a temperature of about 25 degrees centigrade (plus or minus 0.2 degrees C.), the crystalline Form A, Form B, and Form C of Compound (I) show a weight gain of about 0.09 weight percent, 0.07 weight percent, and 5.7 weight percent, respectively.

[5] = Physical and chemical stability on storage (XRPD and HPLC); conditions: 40° C./75% RH; 25° C./60% RH; 60° C.; two and four weeks
Protocol: To evaluate the physical and chemical stability, Form A, Form B, and Form C were stored in 3 conditions (40° C./75% RH; 25° C./60% RH; and 60° C.) for two and four weeks. All samples were characterized using XRPD and HPLC.

[6] = Form identification by heating to 100° C. and cooling to RT (XRPD comparison)
Protocol: A weight loss of 5.7% up to 100° C. was observed on the TGA curve for Form C prepared by evaporation. […] (peak temperature) and 124.9° C. (onset temperature). […] (peak temperature) and 127.0° C. (onset temperature) were observed on the DSC curve. For form identification, variable-temperature XRPD (VT-XRPD) was performed for Form C. […] Considering the large TGA weight loss and no XRPD change after removal of water/solvent (VT-XRPD). Single crystal structure determination confirmed that Form C is a channel hydrate (without form change after dehydration).
A two-stage weight loss of 3.8% up to 85° C. and 11.5% from 85° C. to 120° C. was observed on the TGA curve. […] For form identification, Form D was heated to 100° C. and cooled to RT. […] According to the results, Form D was characterized to be an IPA solvate.

[7] = Equilibrium solubility in pH buffers, residual solid by XRPD; conditions: 8 pH buffers (pH 1.0-8.0), RT, 24 hrs, XRPD of residual solids
Protocol: Equilibrium solubility of Form B was measured in 8 pH buffers (i.e., pH 1.0, 2.0, 3.0, 4.0, 5.0, 6.0, 7.0, 8.0) at RT for 24 hrs. Solids were suspended into pH buffers with target conc. of ˜10 mg/mL. The suspensions were slurried at RT for 24 hrs (1000 rpm), prior to centrifugation at 20000 rpm (2 min), and filtration through 0.45 μm membrane to obtain supernatant for HPLC solubility and pH tests. The residual solids were analyzed by XRPD.

Solubility ([3]; FaSSIF (pH 6.5), 1 hr) [µg/mL] | Solubility ([3]; FaSSIF (pH 6.5), 4 hr) [µg/mL] | Solubility ([3]; FaSSIF (pH 6.5), 24 hr) [µg/mL] | Solubility ([3]; FeSSIF (pH 5.0), 1 hr) [µg/mL] | Solubility ([3]; FeSSIF (pH 5.0), 4 hr) [µg/mL] | Solubility ([3]; FeSSIF (pH 5.0), 24 hr) [µg/mL] | Solubility ([3]; H2O (pH 6.5), 1 hr) [µg/mL] | Solubility ([3]; H2O (pH 6.5), 4 hr) [µg/mL] | Solubility ([3]; H2O (pH 6.5), 24 hr) [µg/mL] | Solubility ([3]; SGF (pH 1.8), 1 hr) [µg/mL] | Solubility ([3]; SGF (pH 1.8), 4 hr) [µg/mL] | Solubility ([3]; SGF (pH 1.8), 24 hr) [µg/mL] | Form change after kinetic solubility test [3] | Weight gain by DVS [4] | Form change after DVS test [4] | Form change on storage (XRPD) [5] | HPLC purity change on storage [5] | Thermodynamic stability relationship / conversion in slurry [2] | Form change after heating to 100° C. and cooling to RT [6] | Compound | Hygroscopicity [4] | other results
860 (≈ 2270 µM) | 730 (≈ 1930 µM) | 150 (≈ 396 µM) | 970 (≈ 2560 µM) | 150 (≈ 396 µM) | 170 (≈ 449 µM) | 440 (≈ 1160 µM) | 100 (≈ 264 µM) | 100 (≈ 264 µM) | 700 (≈ 1850 µM) | 110 (≈ 291 µM) | 100 (≈ 264 µM) | converted to Form A | ~5.7 weight percent | no form change | no observable form change | no noticeable HPLC purity change | converted to Form B | no form change | CN1C(=O)[C@@H](NC(=O)c2nnc(Cc3ccccc3)[nH]2)COc2cccnc21 [Form C, (S)-5-benzyl-N-(5-methyl-4-oxo-2,3,4,5-tetrahydropyrido [3,2-b][1,4]oxazepin-3-yl)-4H-1,2,4-triazole-3-carboxamide] | – | Final Form ([3]; residual solid by XRPD, H2O (pH 6.5), 1 hr): A + C
– | – | – | – | – | – | – | – | – | – | – | – | – | – | – | – | – | – | converted to Form C | CN1C(=O)[C@@H](NC(=O)c2nnc(Cc3ccccc3)[nH]2)COc2cccnc21 [Form D, (S)-5-benzyl-N-(5-methyl-4-oxo-2,3,4,5-tetrahydropyrido [3,2-b][1,4]oxazepin-3-yl)-4H-1,2,4-triazole-3-carboxamide] | – | –

Second part, the molecule before the results:

Compound | Solubility ([3]; FaSSIF (pH 6.5), 1 hr) [µg/mL] | Solubility ([3]; FaSSIF (pH 6.5), 4 hr) [µg/mL] | Solubility ([3]; FaSSIF (pH 6.5), 24 hr) [µg/mL] | Solubility ([3]; FeSSIF (pH 5.0), 1 hr) [µg/mL] | Solubility ([3]; FeSSIF (pH 5.0), 4 hr) [µg/mL] | Solubility ([3]; FeSSIF (pH 5.0), 24 hr) [µg/mL] | Solubility ([3]; H2O (pH 6.5), 1 hr) [µg/mL] | Solubility ([3]; H2O (pH 6.5), 4 hr) [µg/mL] | Solubility ([3]; H2O (pH 6.5), 24 hr) [µg/mL] | Solubility ([3]; SGF (pH 1.8), 1 hr) [µg/mL] | Solubility ([3]; SGF (pH 1.8), 4 hr) [µg/mL] | Solubility ([3]; SGF (pH 1.8), 24 hr) [µg/mL] | Form change after kinetic solubility test [3] | Weight gain by DVS [4] | Form change after DVS test [4] | Form change on storage (XRPD) [5] | HPLC purity change on storage [5] | Thermodynamic stability relationship / conversion in slurry [2] | Form change after heating to 100° C. and cooling to RT [6] | Hygroscopicity [4] | other results
CN1C(=O)[C@@H](NC(=O)c2nnc(Cc3ccccc3)[nH]2)COc2cccnc21 [Form E, (S)-5-benzyl-N-(5-methyl-4-oxo-2,3,4,5-tetrahydropyrido [3,2-b][1,4]oxazepin-3-yl)-4H-1,2,4-triazole-3-carboxamide] | – | – | – | – | – | – | – | – | – | – | – | – | – | – | – | – | – | – | – | – | Form change on exposure to ambient condition [1]: converted to Form C
CN1C(=O)[C@@H](NC(=O)c2nnc(Cc3ccccc3)[nH]2)COc2cccnc21 [Form A + B + C] | – | – | – | – | – | – | – | – | – | – | – | – | – | – | – | – | – | – | – | – | Crystal form after slurry competition ([2]; H2O or n-Heptane, RT or 70° C., about 2 days (experiments 1-4, merged cell)): Form B
CN1C(=O)[C@@H](NC(=O)c2nnc(Cc3ccccc3)[nH]2)COc2cccnc21 [Form B, (S)-5-benzyl-N-(5-methyl-4-oxo-2,3,4,5-tetrahydropyrido [3,2-b][1,4]oxazepin-3-yl)-4H-1,2,4-triazole-3-carboxamide] | 80 (≈ 211 µM) | 90 (≈ 238 µM) | 90 (≈ 238 µM) | 100 (≈ 264 µM) | 110 (≈ 291 µM) | 100 (≈ 264 µM) | 70 (≈ 185 µM) | 70 (≈ 185 µM) | 70 (≈ 185 µM) | 80 (≈ 211 µM) | 80 (≈ 211 µM) | 80 (≈ 211 µM) | No form change | ~0.07 weight percent | no form change | no observable form change | no noticeable HPLC purity change | thermodynamically more stable | – | less hygroscopic; also recorded: no hygroscopicity; also recorded: not hygroscopic | Form change after equilibrium solubility evaluation [7]: No form change
CN1C(=O)[C@@H](NC(=O)c2nnc(Cc3ccccc3)[nH]2)COc2cccnc21 [Form A, (S)-5-benzyl-N-(5-methyl-4-oxo-2,3,4,5-tetrahydropyrido [3,2-b][1,4]oxazepin-3-yl)-4H-1,2,4-triazole-3-carboxamide] | – | – | – | 120 (≈ 317 µM) | – | – | 80 (≈ 211 µM) | – | – | – | – | – | No form change | about 0.09 weight percent | no form change | no observable form change | no noticeable HPLC purity change | converted to Form B | – | no hygroscopicity; also recorded: less hygroscopic | solubility at 24 h ([3]; FaSSIF, pH 6.5, fassif, FaSSIF (pH 6.5), 24 hr): 100 µg/mL (≈ 264 µM); solubility at 4 h ([3]; FeSSIF, pH 5, fessif, FeSSIF (pH 5.0), 4 hr): 120 µg/mL (≈ 317 µM); solubility at 24 h ([3]; FeSSIF, pH 5, fessif, FeSSIF (pH 5.0), 24 hr): 120 µg/mL (≈ 317 µM); solubility at 4 h ([3]; SGF, pH 1.8, simulated gastric fluid, SGF (pH 1.8), 4 hr): 100 µg/mL (≈ 264 µM); solubility at 24 h ([3]; SGF, pH 1.8, simulated gastric fluid, SGF (pH 1.8), 24 hr): 100 µg/mL (≈ 264 µM); solubility at 4 h ([3]; water, pH 6.5, water, H2O (pH 6.5), 4 hr): 90 µg/mL (≈ 238 µM); solubility at 24 h ([3]; water, pH 6.5, water, H2O (pH 6.5), 24 hr): 90 µg/mL (≈ 238 µM)
